Key:
Assay in all cases: combination Emax (second highest fraction inhibited in the dose matrix, 72 h); higher = more inhibition; extreme values may be limits of the assay
ACHN (Kidney Carcinoma) = test system: ACHN (Kidney Carcinoma)
In short: (§1)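 Bliss excess equals the observed combination effect minus the expected value EA + EB − EA·EB, where EA and EB are the effects of each agent alone. Combination Emax is the second-highest inhibition within the matrix. Inhibition was scaled from CellTiter-Glo 2.0 luminescence, with 0 set by vehicle wells and 1 by blank wells, after 72 hours of two-drug dosing of cells plated in 1536-well plates.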

[1] = test system: Ca9-22 (Head and Neck Carcinoma)
In short: as §1

[2] = test system: Caov-4 (Ovarian Carcinoma)
In short: as §1

EW-24 (Ewing's Sarcoma) = test system: EW-24 (Ewing's Sarcoma)
In short: as §1

[3] = test system: HGC-27 (Gastric Carcinoma)
In short: as §1

[4] = test system: HOP-62 (Lung Adenocarcinoma)
In short: as §1

[5] = test system: HSC-4 (Oral Cavity Carcinoma)
In short: as §1

[6] = test system: KARPAS-299 (T-Cell Non-Hodgkin's Lymphoma)
In short: as §1

[7] = test system: KYSE-450 (Esophageal Squamous Cell Carcinoma)
In short: as §1

[8] = test system: LU-65 (Non-Small Cell Lung Carcinoma)
In short: as §1

[9] = test system: MIA-PaCa-2 (Pancreatic Carcinoma)
In short: as §1

[10] = test system: NCI-H1915 (Non-Small Cell Lung Carcinoma)
In short: as §1

[11] = test system: NEC8 (Other Solid Carcinomas)
In short: as §1

[12] = test system: NUGC-3 (Gastric Carcinoma)
In short: as §1

[13] = test system: PANC-04-03 (Pancreatic Carcinoma)
In short: as §1

PWR-1E (Non-Cancerous) = test system: PWR-1E (Non-Cancerous)
In short: as §1

[14] = test system: RF-48 (B-Cell Non-Hodgkin's Lymphoma)
In short: as §1

TGW (Neuroblastoma) = test system: TGW (Neuroblastoma)
In short: as §1

[15] = test system: VA-ES-BJ (Other Solid Carcinomas)
In short: as §1

YH-13 (Glioblastoma) = test system: YH-13 (Glioblastoma)
In short: as §1

SMILES | combination Emax (ACHN (Kidney Carcinoma)) | combination Emax [1] | combination Emax [2] | combination Emax (EW-24 (Ewing's Sarcoma)) | combination Emax [3] | combination Emax [4] | combination Emax [5] | combination Emax [6] | combination Emax [7] | combination Emax [8] | combination Emax [9] | combination Emax [10] | combination Emax [11] | combination Emax [12] | combination Emax [13] | combination Emax (PWR-1E (Non-Cancerous)) | combination Emax [14] | combination Emax (TGW (Neuroblastoma)) | combination Emax [15] | combination Emax (YH-13 (Glioblastoma))
NC1(C(=O)N[C@@H](CCO)c2ccc(Cl)cc2)CCN(c2ncnc3[nH]ccc23)CC1 [Capivasertib] + Cn1cnc2c(F)c(Nc3ccc(Br)cc3Cl)c(C(=O)NOCCO)cc21 [Selumetinib] (first compound max 10 µM, 7x7, partner max 10 µM) | 0.49 | 0.554 | 0.613 | 0.485 | 0.841 | 0.644 | 0.609 | 0.587 | 0.547 | 0.729 | 0.643 | 0.791 | 0.152 | 0.662 | 0.576 | 0.486 | 0.456 | 0.262 | 0.347 | 0.598
COc1cccc2c1C(=O)c1c(O)c3c(c(O)c1C2=O)C[C@@](O)(C(=O)CO)C[C@@H]3O[C@H]1C[C@H](N)[C@H](O)[C@H](C)O1 [Doxorubicin] + Cc1cc2ncnn2cc1Nc1ncc2c(n1)n(C1CCOCC1)c(=O)n2C [AZD7648] (first compound max 1 µM, 7x7, partner max 10 µM) | 0.913 | 0.831 | 0.913 | 0.719 | 0.928 | 0.619 | 0.437 | 0.941 | 0.801 | 0.889 | 0.949 | 0.486 | 0.973 | 0.907 | 0.278 | 0.89 | 0.836 | 0.497 | 0.758 | 0.754
CS(=O)(=O)CCNCc1ccc(-c2ccc3ncnc(Nc4ccc(OCc5cccc(F)c5)c(Cl)c4)c3c2)o1 [Lapatinib] + C[C@@H](Oc1cc(-c2cnn(C3CCNCC3)c2)cnc1N)c1c(Cl)ccc(F)c1Cl [Crizotinib] (first compound max 10 µM, 7x7, partner max 10 µM) | 0.781 | 0.987 | 0.849 | 0.9 | 0.983 | 0.842 | 0.465 | 0.978 | 0.869 | 0.894 | 0.96 | 0.65 | 0.862 | 0.96 | 0.594 | 0.928 | 0.477 | 0.776 | 0.756 | 0.809
CC(=O)c1c(C)c2cnc(Nc3ccc(N4CCNCC4)cn3)nc2n(C2CCCC2)c1=O [Palbociclib] + CC1(C)CCC(CN2CCN(c3ccc(C(=O)NS(=O)(=O)c4ccc(NCC5CCOCC5)c([N+](=O)[O-])c4)c(Oc4cnc5[nH]ccc5c4)c3)CC2)=C(c2ccc(Cl)cc2)C1 [Venetoclax] (first compound max 10 µM, 7x7, partner max 1 µM) | 0.597 | 0.2 | 0.18 | 0.432 | 0.628 | 0.251 | 0.121 | 0.495 | 0.126 | 0.117 | 0.31 | 0.466 | 0.0159 | 0.339 | 0.0967 | 0.149 | 0.254 | 0.226 | 0.257 | 0.344
CC(=O)c1c(C)c2cnc(Nc3ccc(N4CCNCC4)cn3)nc2n(C2CCCC2)c1=O [Palbociclib] + Cc1c2c(nn1C)CSCc1cc(n(C)n1)CSc1cc(c3ccccc3c1)OCCCc1c(C(=O)O)n(C)c3c-2c(Cl)ccc13 [AZD5991] (first compound max 10 µM, 7x7, partner max 1 µM) | 0.626 | 0.267 | 0.602 | 0.577 | 0.715 | 0.424 | 0.106 | 0.968 | 0.263 | 0.281 | 0.447 | 0.447 | 0.277 | 0.572 | 0.196 | 0.271 | 0.298 | 0.24 | 0.283 | 0.38
CC(=O)c1c(C)c2cnc(Nc3ccc(N4CCNCC4)cn3)nc2n(C2CCCC2)c1=O [Palbociclib] + Cn1cnc2c(F)c(Nc3ccc(Br)cc3Cl)c(C(=O)NOCCO)cc21 [Selumetinib] (first compound max 10 µM, 7x7, partner max 10 µM) | 0.606 | 0.458 | 0.585 | 0.318 | 0.617 | 0.471 | 0.261 | 0.594 | 0.403 | 0.491 | 0.604 | 0.782 | 0.0587 | 0.533 | 0.404 | 0.142 | 0.277 | 0.342 | 0.158 | 0.387
COc1cccc(OCCCN)c1-c1cc(Nc2cnc(C#N)cn2)n[nH]1 [Prexasertib] + C=CCn1c(=O)c2cnc(Nc3ccc(N4CCN(C)CC4)cc3)nc2n1-c1cccc(C(C)(C)O)n1 [AZD1775] (first compound max 1 µM, partner max 1 µM) | 0.96 | 1 | 0.98 | 0.7 | 0.991 | 0.627 | 0.641 | 0.978 | 0.999 | 0.873 | 0.987 | 0.749 | 0.999 | 0.873 | 0.627 | 0.975 | 0.786 | 0.999 | 0.804 | 0.858
COc1cccc(OCCCN)c1-c1cc(Nc2cnc(C#N)cn2)n[nH]1 [Prexasertib] + CCc1c2c(nc3ccc(O)cc13)-c1cc3c(c(=O)n1C2)COC(=O)[C@]3(O)CC [SN-38] (first compound max 1 µM, 7x7, partner max 0.3 µM) | 0.931 | 0.985 | 1 | 0.832 | 0.994 | 0.843 | 0.9 | 0.992 | 0.996 | 0.926 | 0.999 | 0.89 | 1 | 0.976 | 0.625 | 1 | 0.804 | 0.944 | 0.914 | 0.862
COc1cccc(OCCCN)c1-c1cc(Nc2cnc(C#N)cn2)n[nH]1 [Prexasertib] + CN(C)CCCOc1ccc(-c2ccc3ncc4c(c3c2)n(C2CCOCC2)c(=O)n4C)cn1 [AZD0156] (first compound max 1 µM, 7x7, partner max 1 µM) | 0.926 | 1 | 0.964 | 0.68 | 0.858 | 0.632 | 0.604 | 0.983 | 0.615 | 0.761 | 0.754 | 0.588 | 0.986 | 0.726 | 0.564 | 0.953 | 0.744 | 0.964 | 0.766 | 0.777
COc1cccc(OCCCN)c1-c1cc(Nc2cnc(C#N)cn2)n[nH]1 [Prexasertib] + C[C@@H]1COCCN1C2=NC(=NC(=C2)C3(CC3)[S@](=N)(=O)C)C4=C5C=CNC5=NC=C4 [AZD6738] (first compound max 1 µM, 7x7, partner max 10 µM) | 0.928 | 0.991 | 0.965 | 0.645 | 0.895 | 0.648 | 0.666 | 0.985 | 0.651 | 0.795 | 0.682 | 0.612 | 0.983 | 0.762 | 0.555 | 0.973 | 0.71 | 0.968 | 0.782 | 0.793
COc1cccc(OCCCN)c1-c1cc(Nc2cnc(C#N)cn2)n[nH]1 [Prexasertib] + Cc1cc2ncnn2cc1Nc1ncc2c(n1)n(C1CCOCC1)c(=O)n2C [AZD7648] (first compound max 1 µM, 7x7, partner max 10 µM) | 0.935 | 1 | 0.959 | 0.649 | 0.858 | 0.582 | 0.588 | 0.962 | 0.584 | 0.822 | 0.792 | 0.602 | 0.995 | 0.747 | 0.599 | 0.983 | 0.725 | 0.947 | 0.763 | 0.869
COc1cccc(OCCCN)c1-c1cc(Nc2cnc(C#N)cn2)n[nH]1 [Prexasertib] + O=C(c1cc(Cc2n[nH]c(=O)c3ccccc23)ccc1F)N1CCN(C(=O)C2CC2)CC1 [Olaparib] (first compound max 1 µM, 7x7, partner max 10 µM) | 0.906 | 0.991 | 0.976 | 0.696 | 0.91 | 0.606 | 0.674 | 1 | 0.744 | 0.788 | 0.797 | 0.665 | 0.968 | 0.726 | 0.49 | 0.71 | 0.726 | 0.915 | 0.837 | 0.804
CCc1c2c(nc3ccc(O)cc13)-c1cc3c(c(=O)n1C2)COC(=O)[C@]3(O)CC [SN-38] + CN(C)CCCOc1ccc(-c2ccc3ncc4c(c3c2)n(C2CCOCC2)c(=O)n4C)cn1 [AZD0156] (first compound max 0.3 µM, 7x7, partner max 1 µM) | 0.951 | 0.914 | 0.954 | 0.781 | 0.885 | 0.664 | 0.804 | 0.924 | 0.767 | 0.836 | 0.945 | 0.609 | 0.99 | 0.984 | 0.462 | 0.946 | 0.801 | 0.62 | 0.875 | 0.509

Source: the supplement of paper PMC11061612
